Each molecule was assayed against T1, human PDE2A1 (Homo sapiens, UniProt O00408) (assay: IMAP FP PDE assay, human PDE2A1). Conditions: Lab A; read-out: Human PDE2 Ki (nM) Lab A.
T1 construct: GST; purchased BPS Bioscience (San Diego, Calif.) 60020; host or cells: insect cells
Type: biochemical
Procedure: Selectivity for PDE2, as compared to other PDE families, was assessed using the IMAP® technology. Human PDE10A2 enzyme was prepared from cytosolic fractions of transiently transfected HEK cells. All other PDE's were GST Tag human enzyme expressed in insect cells and were obtained from BPS Bioscience (San Diego, Calif.): PDE1A (Cat#60010), human PDE2A1 (Cat#60020), PDE3A (Cat#60030), PDE4A1A (Cat#60040), PDE5A1 (Cat#60050), PDE6C (Cat#60060), PDE7A (Cat#60070), PDE8A1 (Cat#60080), PDE9A2 (Cat#60090), PDE11A4 (Cat#60110).
Assays for PDE 1 through 11 were performed in parallel at room temperature in 384-well microtiter plates with an incubation volume of 20.2 μL. Solutions of test compounds were prepared in DMSO and serially diluted with DMSO to yield 30 μL of each of ten solutions differing by 3-fold in concentration, at 32 serial dilutions per plate. […] A Labcyte POD 810 (Labcyte, Sunnyvale, Calif.) was used to dispense 200 nL from each well of the titration plate to make eleven copies of the assay plate for each titration, one copy for each PDE enzyme. A solution of each enzyme (dilution from aliquots, sufficient to produce 20% substrate conversion) and a separate solution of FAM-labeled cAMP or FAM-labeled cGMP from Molecular Devices (Sunnyvale, Calif., product # R7506 or cGMP#R7508), at a final concentration of 50 nM were made in the assay buffer (10 mM Tris HCl, pH 7.2, 10 mM MgCl2, 0.05% NaN3 0.01% Tween-20, and 1 mM DTT). Note that the substrate for PDE2 is 50 nM FAM cAMP containing 1000 nM of cGMP. The enzyme and the substrate were then added to the assay plates in two consecutive additions of 10 μL and then shaken to mix. The reaction was allowed to proceed at room temperature for 60 minutes. A binding solution was then made from the kit components, comprised of 80% Solution A, 20% Solution B and binding reagent at a volume of 1/600 the total binding solution. The enzymatic reaction was stopped by addition of 60 μL of the binding solution to each well of the assay plate. The plates were sealed and shaken for 10 seconds. The plates were incubated at room temperature for one hour, then the parallel and perpendicular fluorescence was measured using a Tecan Genios Pro plate reader (Tecan, Switzerland). The apparent inhibition constants for the compounds against all 11 PDE's was determined from the parallel and perpendicular fluorescent readings as described for PDE10 FP assay using the following apparent KM values for each enzyme and substrate combination: PDE1A (FAM cGMP) 70 nM, human PDE2A1 (FAM cAMP) 10,000 nM, PDE3A (FAM cAMP) 50 nM, PDE4A1A (FAM cAMP) 1500 nM, PDE5A1 (FAM cGMP) 400 nM, PDE6C (FAM cGMP) 700 nM, PDE7A (FAM cAMP) 150 nM, PDE8A1 (FAM cAMP) 50 nM, PDE9A2 (FAM cGMP) 60 nM, PDE10A2 (FAM cAMP) 150 nM, PDE11A4 (FAM cAMP) 1000 nM. The intrinsic PDE2 inhibitory activity of a compound which may be used in accordance with the present invention may be determined by these assays.

T1 sequence (O00408 1-920 isoform O00408-2): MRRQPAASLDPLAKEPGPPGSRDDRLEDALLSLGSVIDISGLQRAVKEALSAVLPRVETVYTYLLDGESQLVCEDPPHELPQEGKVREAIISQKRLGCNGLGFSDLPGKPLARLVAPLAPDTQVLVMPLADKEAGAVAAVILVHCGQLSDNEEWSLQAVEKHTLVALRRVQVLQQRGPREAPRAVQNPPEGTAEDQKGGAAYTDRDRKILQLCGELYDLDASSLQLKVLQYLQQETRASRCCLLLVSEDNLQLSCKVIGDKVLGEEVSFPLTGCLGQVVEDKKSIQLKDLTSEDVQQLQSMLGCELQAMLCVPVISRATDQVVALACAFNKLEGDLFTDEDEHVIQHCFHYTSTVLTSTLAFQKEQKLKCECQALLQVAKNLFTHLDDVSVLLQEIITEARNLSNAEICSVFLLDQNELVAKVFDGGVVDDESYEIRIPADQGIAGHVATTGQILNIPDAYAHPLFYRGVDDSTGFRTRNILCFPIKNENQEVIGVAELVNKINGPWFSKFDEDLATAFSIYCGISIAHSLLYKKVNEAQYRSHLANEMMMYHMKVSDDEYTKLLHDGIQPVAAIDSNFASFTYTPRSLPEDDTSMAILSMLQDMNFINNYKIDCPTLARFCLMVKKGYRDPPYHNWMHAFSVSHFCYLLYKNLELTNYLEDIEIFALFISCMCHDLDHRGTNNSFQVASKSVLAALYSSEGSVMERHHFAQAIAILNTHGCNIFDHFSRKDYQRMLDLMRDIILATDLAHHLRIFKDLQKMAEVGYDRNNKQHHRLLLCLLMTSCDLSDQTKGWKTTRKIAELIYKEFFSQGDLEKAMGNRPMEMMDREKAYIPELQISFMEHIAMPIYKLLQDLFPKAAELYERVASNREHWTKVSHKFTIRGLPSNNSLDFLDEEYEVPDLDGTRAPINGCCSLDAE

Compound | Ki [nM]
COc1ccc(Cc2nc3c(c(CO)nn3C(C)c3ccc(C(F)(F)F)cc3)c(=O)[nH]2)cc1OC (racemic) [Example 297, 6-(3,4-Dimethoxybenzyl)-3-(hydroxymethyl)-1-{1-[4-(trifluoromethyl)phenyl]ethyl}-1,5-dihydro-4H-pyrazolo[3,4-d]pyrimidin-4-one] | 0.72

Same assay, conditions: Lab B; read-out: Human PDE2 Ki (nM) Lab B

Compound | Ki [nM]
CC1CCC(Cc2nc3c(c(CO)nn3C(C)c3ccc(C(F)(F)F)cc3)c(=O)[nH]2)O1 (racemic) [Example 298, 3-(Hydroxymethyl)-6-[(5-methyltetrahydrofuran-2-yl)methyl]-1-{1-[4-(trifluoromethyl)phenyl]ethyl}-1,5-dihydro-4H-pyrazolo[3,4-d]pyrimidin-4-one] | 62
Cc1nc2c(c(CO)nn2C(c2ccc(C(F)(F)F)c(F)c2)C2(C)CC2)c(=O)[nH]1 (single isomer, unassigned) [Example 14, (R)- or (S)-1-((3-Fluoro-4-(trifluoromethyl)phenyl)(1-methylcyclopropyl)methyl)-3-(hydroxymethyl)-6-methyl-1H-pyrazolo[3,4-d]pyrimidin-4(5H)-one] | 2.4
Cc1nc2c(c(CO)nn2C(c2ccc(C(F)(F)F)c(F)c2)C2(C)CC2)c(=O)[nH]1 (single isomer, unassigned) [Example 15, (S)- or (R)-1-((3-Fluoro-4-(trifluoromethyl)phenyl)(1-methylcyclopropyl)methyl)-3-(hydroxymethyl)-6-methyl-1H-pyrazolo[3,4-d]pyrimidin-4(5H)-one] | 154
Cc1nc2c(c(CO)nn2C(C)c2ccc(C(F)(F)F)cc2F)c(=O)[nH]1 (single isomer, unassigned) [Example 16, (R)- or (S)-1-(1-(2-Fluoro-4-(trifluoromethyl)phenyl)ethyl)-3-(hydroxymethyl)-6-methyl-1H-pyrazolo[3,4-d]pyrimidin-4(5H)-one] | 81
Cc1nc2c(c(CO)nn2C(C)c2ccc(C(F)(F)F)cc2Cl)c(=O)[nH]1 (single isomer, unassigned) [Example 18, (R)- or (S)-1-(1-(2-Chloro-4-(trifluoromethyl)phenyl)ethyl)-3-(hydroxymethyl)-6-methyl-1H-pyrazolo[3,4-d]pyrimidin-4(5H)-one] | ~2850
Cc1nc2c(c(CO)nn2C(C)c2ccc(OC(F)F)cc2)c(=O)[nH]1 (single isomer, unassigned) [Example 20, (R)- or (S)-1-(1-(4-(Difluoromethoxy)phenyl)ethyl)-3-(hydroxymethyl)-6-methyl-1H-pyrazolo[3,4-d]pyrimidin-4(5H)-one] | 305
Cc1nc2c(c(CO)nn2C(C)c2ccc(SC(F)(F)F)cc2)c(=O)[nH]1 (single isomer, unassigned) [Example 22, (R)- or (S)-3-(Hydroxymethyl)-6-methyl-1-(1-(4-(trifluoromethylthio)phenyl)ethyl)-1H-pyrazolo[3,4-d]pyrimidin-4(5H)-one] | 125
Cc1nc2c(c(CC(F)(F)F)nn2C(c2ccc(C(F)(F)F)c(F)c2)C(C)(C)C)c(=O)[nH]1 (single isomer, unassigned) [Example 60, (R)- or (S)-1-(1-(3-Fluoro-4-(trifluoromethyl)phenyl)-2,2-dimethylpropyl)-6-methyl-3-(2,2,2-trifluoroethyl)-1H-pyrazolo[3,4-d]pyrimidin-4(5H)-one] | > 2960
Cc1nc2c(c(CC(F)(F)F)nn2C(c2ccc(C(F)(F)F)c(F)c2)C(C)(C)C)c(=O)[nH]1 (single isomer, unassigned) [Example 61, (S)- or (R)-1-(1-(3-Fluoro-4-(trifluoromethyl)phenyl)-2,2-dimethylpropyl)-6-methyl-3-(2,2,2-trifluoroethyl)-1H-pyrazolo[3,4-d]pyrimidin-4(5H)-one] | 55
Cc1nc2c(c(CC(F)(F)F)nn2C(c2ccc(C(F)(F)F)c(F)c2)C2(C)CC2)c(=O)[nH]1 (single isomer, unassigned) [Example 62, (R)- or (S)-1-((3-Fluoro-4-(trifluoromethyl)phenyl)(1-methylcyclopropyl)methyl)-6-methyl-3-(2,2,2-trifluoroethyl)-1H-pyrazolo[3,4-d]pyrimidin-4(5H)-one] | 1100
Cc1nc2c(c(CC(F)(F)F)nn2C(c2ccc(C(F)(F)F)c(F)c2)C2(C)CC2)c(=O)[nH]1 (single isomer, unassigned) [Example 63, (S)- or (R)-1-((3-Fluoro-4-(trifluoromethyl)phenyl)(1-methylcyclopropyl)methyl)-6-methyl-3-(2,2,2-trifluoroethyl)-1H-pyrazolo[3,4-d]pyrimidin-4(5H)-one] | 45
Cc1nc2c(c(CC(F)(F)F)nn2C(C)c2ccc(C(F)(F)F)cc2)c(=O)[nH]1 (single isomer, unassigned) [Example 64, (R)- or (S)-6-Methyl-3-(2,2,2-trifluoroethyl)-1-(1-(4-(trifluoromethyl)phenyl)ethyl)-1H-pyrazolo[3,4-d]pyrimidin-4(5H)-one] | 274
Cc1nc2c(c(CC(F)(F)F)nn2C(C)c2ccc(C(F)(F)F)cc2)c(=O)[nH]1 (single isomer, unassigned) [Example 65, (S)- or (R)-6-Methyl-3-(2,2,2-trifluoroethyl)-1-(1-(4-(trifluoromethyl)phenyl)ethyl)-1H-pyrazolo[3,4-d]pyrimidin-4(5H)-one] | 5
Cc1nc2c(c(CC(F)(F)F)nn2C(C)c2ccc(OC(F)(F)F)cc2)c(=O)[nH]1 (single isomer, unassigned) [Example 66, (R)- or (S)-6-Methyl-3-(2,2,2-trifluoroethyl)-1-(1-(4-(trifluoromethoxy)phenyl)ethyl)-1H-pyrazolo[3,4-d]pyrimidin-4(5H)-one] | 327
Cc1nc2c(c(CC(F)(F)F)nn2C(C)c2ccc(OC(F)(F)F)cc2)c(=O)[nH]1 (single isomer, unassigned) [Example 67, (S)- or (R)-6-Methyl-3-(2,2,2-trifluoroethyl)-1-(1-(4-(trifluoromethoxy)phenyl)ethyl)-1H-pyrazolo[3,4-d]pyrimidin-4(5H)-one] | 6.7
Cc1nc2c(c(C(F)(F)F)nn2C(C)c2ccc(C(F)(F)F)cc2)c(=O)[nH]1 (single isomer, unassigned) [Example 68, (R)- or (S)-6-Methyl-3-(trifluoromethyl)-1-(1-(4-(trifluoromethyl)phenyl)ethyl)-1H-pyrazolo[3,4-d]pyrimidin-4(5H)-one] | 8.6
Cc1nc2c(c(C(F)(F)F)nn2C(C)c2ccc(C(F)(F)F)cc2)c(=O)[nH]1 (single isomer, unassigned) [Example 69, (S)- or-(R)-6-Methyl-3-(trifluoromethyl)-1-(1-(4-(trifluoromethyl)phenyl)ethyl)-1H-pyrazolo[3,4-d]pyrimidin-4(5H)-one] | 713
Cc1nc2c(c(C3CCCO3)nn2C(C)c2ccc(C(F)(F)F)cc2)c(=O)[nH]1 (single isomer, unassigned) [Example 70, (R, R)- or (R, S) or (S, R) or (S, S)-6-Methyl-3-(-tetrahydrofuran-(trifluoromethyl)phenyl)ethyl)-1H-pyrazolo[3,4-d]pyrimidin-4(5H)-one] | 159
Cc1nc2c(c(C3CCCO3)nn2C(C)c2ccc(C(F)(F)F)cc2)c(=O)[nH]1 (single isomer, unassigned) [Example 71, (R, S)- or (R, R)- or (S, R)- or (S, S)-6-Methyl-3-(-tetrahydrofuran-2-yl)-1-(-l-(4-(trifluoromethyl)phenyl)ethyl)-1H-pyrazolo[3,4-d]pyrimidin-4(5H)-one] | 111
Cc1nc2c(c(C3CCCO3)nn2C(C)c2ccc(C(F)(F)F)cc2)c(=O)[nH]1 (single isomer, unassigned) [Example 72, (S, R)- or (S, S)- or (R, S)- or (R, R)-6-Methyl-3-(-tetrahydrofuran-(trifluoromethyl)phenyl)ethyl)-1H-pyrazolo[3,4-d]pyrimidin-4(5H)-one] | 570

Reference: US10160762B2, “6-alkyl dihydropyrazolopyrimidinone compounds as PDE2 inhibitors” (Merck Sharp & Dohme Corp., priority 2015, dated 2018)
